In PMC5855801, “Benzothiophenone Derivatives Targeting Mutant Forms of Estrogen Receptor-α in Hormone-Resistant Breast Cancers” (International Journal of Molecular Sciences, 2018):
Read-outs that look alike come from different tables or passages of the source.

Columns and labels:
ERα [1] = target: T1, ERα (Homo sapiens, UniProt P03372); set-up: method as in PMID 25848700; settings: estrogen-sensitive T47DKBluc cells; previously reported; read-out: IC50 of previously-reported template compound; cited from earlier work
T1 construct: ERα-positive T47DKBluc cells were grown in phenol red-free RPMI 1640; endogenous in cells; host or cells: T47DKBluc (ATCC CRL-2865)
T1 sequence (P03372 1-595): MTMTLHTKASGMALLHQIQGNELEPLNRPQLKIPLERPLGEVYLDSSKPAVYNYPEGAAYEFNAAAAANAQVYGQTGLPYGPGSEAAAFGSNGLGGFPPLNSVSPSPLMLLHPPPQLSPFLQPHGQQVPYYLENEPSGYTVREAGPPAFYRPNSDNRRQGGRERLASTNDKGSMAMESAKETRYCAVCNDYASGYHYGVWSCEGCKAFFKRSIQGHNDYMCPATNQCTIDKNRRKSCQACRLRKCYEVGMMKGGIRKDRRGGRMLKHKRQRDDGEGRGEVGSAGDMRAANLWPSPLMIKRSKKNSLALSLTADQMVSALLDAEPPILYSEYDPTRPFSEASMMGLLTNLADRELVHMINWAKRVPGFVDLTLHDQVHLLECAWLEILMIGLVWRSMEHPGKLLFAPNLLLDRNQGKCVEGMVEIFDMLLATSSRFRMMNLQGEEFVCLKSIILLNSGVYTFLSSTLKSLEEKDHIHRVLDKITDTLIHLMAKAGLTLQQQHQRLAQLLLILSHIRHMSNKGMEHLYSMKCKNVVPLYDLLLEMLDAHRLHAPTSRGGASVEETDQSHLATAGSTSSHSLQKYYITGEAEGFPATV

ERα [2] = target: T1, ERα; experiment: Estrogen-responsive luciferase reporter transcriptional assay in T47DKBluc cells; assay type: cell-based; settings: 1 nM E2, 24 h; for IC50: read-out: IC50 against ERα in the luciferase reporter-based transcriptional assay
Procedure: T47DKBluc cells (ATCC® CRL-2865^TM, Manassa, VA, USA) stably transfected with a 3X-ERE–promoter–luciferase reporter gene construct, pGL2.TATA.Inr.luc.neo [38], were used to measure inhibition of ERα-driven transcriptional activity of the luciferase reporter.
This assay was performed as described previously. Briefly, ERα-positive T47DKBluc cells were grown in phenol red-free RPMI 1640 supplemented with 10% CSS for 5 days. The cells were seeded on 96-well plates (2 × 10^4 cells/well). After 24 h, the cells were treated with test compounds in the presence of 1 nM E2. Twenty four hours post-treatment, the cells were lysed with 50 μL of 1× passive lysis buffer (Promega, Madison, WI, USA). Twenty microliters of the lysate from each treatment were transferred onto a white, 96-well, flat-bottomed plate (Corning Life Sciences, Corelle, NY, USA), and the luminescent signal was measured after adding 50 μL of the luciferase assay reagent (Promega, Madison, WI, USA) on a Tecan M200Pro microplate reader (Tecan, Menedorf, Switzerland). Differences in growth were normalised against total protein concentration, which was measured by the bicinchoninic acid (BCA) assay.

ERα LBD = target: T2, ERα LBD (Homo sapiens, UniProt P03372); experiment: Biolayer interferometry (BLI) direct binding assay; settings: biotinylated ERα LBD on streptavidin sensor, 3–100 μM
T2 construct: ERα LBD (amino acids 302–552) was cloned into the pAN4 AviTag™ Vector; made in house
T2 sequence (P03372 302-552): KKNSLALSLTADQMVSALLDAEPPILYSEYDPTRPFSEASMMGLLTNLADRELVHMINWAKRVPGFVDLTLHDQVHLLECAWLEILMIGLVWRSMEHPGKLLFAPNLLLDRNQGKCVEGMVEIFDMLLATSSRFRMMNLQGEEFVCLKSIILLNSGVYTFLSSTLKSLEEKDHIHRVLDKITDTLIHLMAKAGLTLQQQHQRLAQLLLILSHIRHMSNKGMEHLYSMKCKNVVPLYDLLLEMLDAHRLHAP
Procedure: The direct binding of small molecules to the ERα-LBD was quantified by BLI using an Octet RED apparatus (Pall ForteBio, Menlo Park, CA, USA). ERα LBD (amino acids 302–552) was cloned into the pAN4 AviTag™ Vector, (Avidity, Aurora, CO, USA). Biotinylated ERα-LBD was purified as described previously. Biotinylated protein (bERα LBD at 0.05 mg/mL) was bound to the super streptavidin sensors (Pall ForteBio) overnight at 4 °C in assay buffer (20 mM Tris, pH 7.5, 500 mM NaCl, 0.2 mM tris(2-carboxyethyl)phosphine TCEP, 0.02 mM E2, 5% glycerol and 5% dimethyl sulfoxide (DMSO). The compounds were dissolved in the assay buffer in a two-fold dilution series ranging from 3.1–100 μM. In all experiments, a known AF2-interacting peptide, PGC-1α (Elim Biopharmaceuticals, Hayward, CA, USA) was used as a control to confirm the functionality of the bERα LBD.

[3] = target: T3, ERα-LBD and FL-PGC1α peptide (Homo sapiens, UniProt P03372); experiment: LanthaScreen TR-FRET ER Alpha coactivator displacement assay; assay type: biochemical; settings: three-fold dilution range, dose-dependent
T3 construct: it was incubated with GST-tagged ERα-LBD (final concentration, 7.25 nM); purchased Life Technologies PV4544
T3 sequence (P03372 311-547 limits assumed): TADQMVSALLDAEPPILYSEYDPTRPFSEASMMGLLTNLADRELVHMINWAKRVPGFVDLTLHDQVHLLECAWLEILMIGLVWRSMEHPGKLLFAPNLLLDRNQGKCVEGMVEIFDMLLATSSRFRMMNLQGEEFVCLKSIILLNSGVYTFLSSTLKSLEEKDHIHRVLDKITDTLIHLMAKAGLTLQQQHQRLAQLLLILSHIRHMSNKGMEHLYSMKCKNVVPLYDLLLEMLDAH
Procedure: The LanthaScreen TR-FRET ER Alpha Coactivator Assay kit (PV4544; Life Technologies) was used as per the manufacturer’s instructions and described previously. To assess the binding of VPC-16464 to the AF2 site, it was incubated with GST-tagged ERα-LBD (final concentration, 7.25 nM) in the presence of a fluorescently-labelled co-activator peptide (fluorescein-PGC-1α) at a final concentration of 250 nM, terbium (Tb)-labelled anti-GST antibody (final concentration, 5 nM) and E2 (final concentration, EC80 […]). Cold SRC-2–3 and PGC-1α peptides were used as positive controls for AF2 site-specific binding. TR-FRET was analysed on a Synergy 4 hybrid microplate reader (BioTek, Winooski, VT, USA) with the settings at 340-nm excitation and 495- and 520-nm emission. The emission ratio (520:495) was analysed and plotted.

Compound	IC50 (ERα [2])	Direct binding to ERα LBD (BLI) (ERα LBD)	also measured
CCOc1cc(Br)cc(/C=N/NC(=O)c2ccc3c(c2)OCCO3)c1O [VPC-16230]	–	–	IC50 (ERα [1]): 5.8 µM
CC(=O)N(/N=C1\Sc2ccccc2C1=O)c1ccccc1Cl [VPC-16464]	2.7 µM	direct, reversible binding	Displacement of FL-PGC1α peptide from ERα-LBD AF2 site (TR-FRET) [3]: successfully displaced
CC(=O)N(/N=C1\Cc2ccccc2C1=O)c1ccccc1Cl [VPC-16600]	–	abolished	IC50 against ERα in the luciferase reporter-based transcriptional assay (ERα [2]): Inactive
CC(=O)N(/N=C1\Oc2ccccc2C1=O)c1ccccc1Cl [VPC-16602]	–	abolished	IC50 against ERα in the luciferase reporter-based transcriptional assay (ERα [2]): Inactive
CC(=O)N(/N=C1\Sc2c(F)cccc2C1=O)c1ccccc1Cl [VPC-16607]	2.9 µM	–	–
CC(=O)N(/N=C1\Sc2ccccc2C1=O)c1cccc(C)c1 [compound 16457]	3.78 µM	–	–
CC(=O)N(/N=C1\Sc2ccccc2C1=O)c1ccc(C)cc1 [compound 16475]	12.3 µM	–	–
CC(=O)N(/N=C1\Sc2ccccc2C1=O)c1ccc(C)c(C)c1 [compound 16484]	9.83 µM	–	–
CC(=O)N(/N=C1\Sc2ccccc2C1=O)c1ccccc1F [compound 16487]	4.64 µM	–	–
